“And” between values parts separate entries of the source, which are not always exact repeats. Identical values can stand only once.
Test: Biodistribution of [^18F]JHU1221823 with cold FAPI-04 blocker
Type: in vivo, mouse
Conditions: for % ID/g Bladder / % ID/g Blood / % ID/g Brain / % ID/g Fat / % ID/g Femur / % ID/g Heart / % ID/g Kidney / % ID/g Large intestine / % ID/g Liver / % ID/g Lung / % ID/g Muscle / % ID/g Pancreas / % ID/g Salivary gland / % ID/g Small intestine / % ID/g Spleen / % ID/g Stomach / % ID/g Tumor: single mouse

## N#C[C@@H]1CCCN1C(=O)CNC(=O)c1ccnc2ccc(OCCCNC(=O)CCOCCOCCOCCOCCNC(=O)[C@H](CCCCNC(=O)c3ccc([18F])nc3)NC(=O)CN3CCN(CC(=O)O)CCN(CC(=O)O)CCN(CC(=O)O)CC3)cc12 [[^18F]JHU1221823]
30 min
  % ID/g Mean Bladder: 2.49 % ID/g
  % ID/g Bladder: 1.53 % ID/g and 3.45 % ID/g
  % ID/g Mean Blood: 10.81 % ID/g
  % ID/g Blood: 11.89 % ID/g and 9.72 % ID/g
  % ID/g Mean Brain: 0.29 % ID/g
  % ID/g Brain: 0.26 % ID/g and 0.31 % ID/g
  % ID/g Mean Fat: 0.42 % ID/g
  % ID/g Fat: 0.41 % ID/g and 0.43 % ID/g
  % ID/g Mean Femur: 3.50 % ID/g
  % ID/g Femur: 3.95 % ID/g and 3.45 % ID/g
  % ID/g Mean Heart: 5.01 % ID/g
  % ID/g Heart: 5.25 % ID/g and 4.76 % ID/g
  % ID/g Mean Kidney: 3.17 % ID/g
  % ID/g Kidney: 3.37 % ID/g and 2.96 % ID/g
  % ID/g Mean Large intestine: 2.14 % ID/g
  % ID/g Large intestine: 1.61 % ID/g and 2.67 % ID/g
  % ID/g Mean Liver: 2.44 % ID/g
  % ID/g Liver: 2.58 % ID/g and 2.30 % ID/g
  % ID/g Mean Lung: 6.38 % ID/g
  % ID/g Lung: 6.92 % ID/g and 5.83 % ID/g
  % ID/g Mean Muscle: 1.73 % ID/g
  % ID/g Muscle: 1.74 % ID/g and 1.71 % ID/g
  % ID/g Mean Pancreas: 3.13 % ID/g
  % ID/g Pancreas: 3.58 % ID/g and 2.88 % ID/g
  % ID/g Mean Salivary gland: 8.51 % ID/g
  % ID/g Salivary gland: 7.35 % ID/g and 9.57 % ID/g
  % ID/g Mean Small intestine: 2.78 % ID/g
  % ID/g Small intestine: 3.08 % ID/g and 2.48 % ID/g
  % ID/g Mean Spleen: 2.08 % ID/g
  % ID/g Spleen: 2.08 % ID/g and 2.12 % ID/g
  % ID/g Mean Stomach: 1.52 % ID/g
  % ID/g Stomach: 1.84 % ID/g and 1.21 % ID/g
  % ID/g Mean Tumor: 3.11 % ID/g
  % ID/g Tumor: 2.90 % ID/g and 3.32 % ID/g
60 min
  % ID/g Mean Bladder: 5.51 % ID/g
  % ID/g Bladder: 3.64 % ID/g and 7.58 % ID/g
  % ID/g Mean Blood: 10.03 % ID/g
  % ID/g Blood: 9.50 % ID/g and 10.76 % ID/g
  % ID/g Mean Brain: 0.45 % ID/g
  % ID/g Brain: 0.40 % ID/g and 0.50 % ID/g
  % ID/g Mean Fat: 0.56 % ID/g
  % ID/g Fat: 0.53 % ID/g and 0.58 % ID/g
  % ID/g Mean Femur: 3.54 % ID/g
  % ID/g Femur: 3.21 % ID/g and 3.87 % ID/g
  % ID/g Mean Heart: 4.52 % ID/g
  % ID/g Heart: 4.67 % ID/g and 4.58 % ID/g
  % ID/g Mean Kidney: 2.75 % ID/g
  % ID/g Kidney: 2.76 % ID/g and 2.75 % ID/g
  % ID/g Mean Large intestine: 5.58 % ID/g
  % ID/g Large intestine: 1.70 % ID/g and 5.45 % ID/g
  % ID/g Mean Liver: 2.62 % ID/g
  % ID/g Liver: 2.49 % ID/g and 2.75 % ID/g
  % ID/g Mean Lung: 6.05 % ID/g
  % ID/g Lung: 5.36 % ID/g and 6.75 % ID/g
  % ID/g Mean Muscle: 1.75 % ID/g
  % ID/g Muscle: 1.76 % ID/g and 1.75 % ID/g
  % ID/g Mean Pancreas: 3.70 % ID/g
  % ID/g Pancreas: 5.44 % ID/g and 3.95 % ID/g
  % ID/g Mean Salivary gland: 8.97 % ID/g
  % ID/g Salivary gland: 9.14 % ID/g and 8.79 % ID/g
  % ID/g Mean Small intestine: 5.18 % ID/g
  % ID/g Small intestine: 8.18 % ID/g and 3.18 % ID/g
  % ID/g Mean Spleen: 2.35 % ID/g
  % ID/g Spleen: 2.25 % ID/g and 2.45 % ID/g
  % ID/g Mean Stomach: 1.68 % ID/g
  % ID/g Stomach: 1.68 % ID/g and 1.57 % ID/g
  % ID/g Mean Tumor: 6.20 % ID/g
  % ID/g Tumor: 5.22 % ID/g and 7.17 % ID/g
+ Blocker Cold FAPI-04, 60 min
  % ID/g Mean Bladder: 2.33 % ID/g
  % ID/g Bladder: 2.62 % ID/g and 2.04 % ID/g
  % ID/g Mean Blood: 0.25 % ID/g
  % ID/g Blood: 0.22 % ID/g and 0.28 % ID/g
  % ID/g Mean Brain: 0.09 % ID/g
  % ID/g Brain: 0.06 % ID/g and 0.11 % ID/g
  % ID/g Mean Fat: 0.21 % ID/g
  % ID/g Fat: 0.15 % ID/g and 0.27 % ID/g
  % ID/g Mean Femur: 1.78 % ID/g
  % ID/g Femur: 0.98 % ID/g and 2.58 % ID/g
  % ID/g Mean Heart: 0.28 % ID/g
  % ID/g Heart: 0.22 % ID/g and 0.33 % ID/g
  % ID/g Mean Kidney: 1.77 % ID/g
  % ID/g Kidney: 1.85 % ID/g and 1.69 % ID/g
  % ID/g Mean Large intestine: 0.47 % ID/g
  % ID/g Large intestine: 0.41 % ID/g and 0.52 % ID/g
  % ID/g Mean Liver: 0.44 % ID/g
  % ID/g Liver: 0.35 % ID/g and 0.51 % ID/g
  % ID/g Mean Lung: 0.72 % ID/g
  % ID/g Lung: 0.54 % ID/g and 0.89 % ID/g
  % ID/g Mean Muscle: 0.48 % ID/g
  % ID/g Muscle: 0.25 % ID/g and 0.61 % ID/g
  % ID/g Mean Pancreas: 0.37 % ID/g
  % ID/g Pancreas: 0.27 % ID/g and 0.46 % ID/g
  % ID/g Mean Salivary gland: 0.42 % ID/g
  % ID/g Salivary gland: 0.37 % ID/g and 0.48 % ID/g
  % ID/g Mean Small intestine: 0.99 % ID/g
  % ID/g Small intestine: 0.91 % ID/g and 1.06 % ID/g
  % ID/g Mean Spleen: 0.51 % ID/g
  % ID/g Spleen: 0.29 % ID/g and 0.38 % ID/g
  % ID/g Mean Stomach: 0.34 % ID/g
  % ID/g Stomach: 0.28 % ID/g and 0.40 % ID/g
  % ID/g Mean Tumor: 1.04 % ID/g
  % ID/g Tumor: 0.89 % ID/g and 1.19 % ID/g

From US20240382629A1, “HETEROBIVALENT AND HOMOBIVALENT AGENTS TARGETING FIBROBLAST ACTIVATION PROTEIN ALPHA AND/OR PROSTATE-SPECIFIC MEMBRANE ANTIGEN” (The Johns Hopkins University, priority 2021, published 2024)
